According to patent US20240350489A1, “LOU064 FOR TREATING MULTIPLE SCLEROSIS” (NOVARTIS AG, priority 2021, published 2024):
“Also recorded” adds a separate entry of the source.

Experiments:
BTK [1] = target: T1, BTK (Homo sapiens, UniProt Q06187); assay: BTK occupancy in blood as biomarker for dose selection; assay type: in vivo; conditions: low doses
T1 construct: simulate BTK occupancy in human spleen/tissues across a range of doses; from tissue; host or cells: human spleen / peripheral tissues (simulated, not sampled)
From the text: BTK occupancy in blood is not an informative biomarker for the purpose of dose selection due to LOU064 pharmacological properties (irreversible binding). […] Occupancy in tissue may be more representative of the efficacy of LOU064.

HumanMOG-induced EAE = HumanMOG-induced EAE in C57BL/6 mouse, prophylactic b.i.d. dosing; assay type: in vivo
From the text: There is no known naturally occurring MS-like disease in rodents or non-human primates. Following immunization of susceptible rodent strains with CNS-specific myelin proteins emulsified in complete Freund's adjuvant (CFA) an induced disease model develops. Experimental autoimmune encephalitis (EAE) mimics many of the pathological phenotypes of MS with focal, demyelinating lesions of the CNS white matter. In the C57BL/6 mouse there are two variants of myelin oligodendrocyte glycoprotein (MOG)-induced EAE depending on whether the human (HumanMOG) or rat (RatMOG) recombinant protein sequences are used (Lyons J.A. et al. (1999) European Journal of Immunology 29:3432-3439; Oliver A. R. et al. (2003) J Immunology 171: 462-468). Minor amino acid residue differences result in HumanMOG-induced EAE being exquisitely B-cell dependent as the APC, whilst RatMOG-induced EAE is B-cell independent and requires dendritic cells as the dominant APC population (Lyons et al 1999; Molnarfi N. et al. (2013) Journal of Experimental Medicine 210(13):2921-2937).
In HumanMOG-induced EAE the BTK inhibitor LOU064 was dosed twice daily (b.i.d.) at 3 mg/kg or 30 mg/kg at 12 hr intervals. Prophylactic dosing of LOU064 was initiated 6 hours prior to MOG/CFA immunization and continued until study end.
EAE was assessed using a scoring system, outlined in Table 1. Clinical scores and body weights were assessed daily throughout the experiment.
According to the animal regulations, humane endpoints for EAE mice were score 3 (>7 days), score 3.5 (>3 days), or immediately if score 4 was reached.
Using a short eight-day (pre-disease onset) EAE protocol, the immune priming mechanisms during the HumanMOG model were investigated.

NF-L = NF-L concentration in serum, RatMOG EAE; assay type: in vivo, mouse; conditions: 30 mg/kg b.i.d., vs vehicle
From the text: In immunized mice, vehicle or LOU064-treated, the mean NF-L level was markedly higher as compared to naive mice.

[2] = tested on: MOG-specific immunoglobulin responses; assay: MOG-specific autoantibodies in serum, RatMOG EAE; assay type: in vivo, mouse; conditions: 30 mg/kg b.i.d., day 21, vs vehicle
From the text: In immunized mice, treated with either vehicle or LOU064, the MOG-specific autoantibody levels, total IgM and IgG subclasses were markedly higher as compared to naive mice. LOU064 treatment had no effect on the MOG-specific IgM and IgG responses in serum compared to vehicle treated mice.

[3] = tested on: MOG-specific immunoglobulin responses; assay: MOG-specific immunoglobulin responses in serum, HumanMOG EAE; assay type: in vivo, mouse; conditions: oral b.i.d. treatment
From the text: In the HumanMOG-induced EAE model the (auto)antibody response is weakly pathogenic.

BTK [4] = target: T2, BTK (Mus musculus, UniProt P35991); assay: BTK occupancy in spleen, lymph nodes and brain homogenate, HumanMOG EAE; assay type: in vivo
T2 construct: from tissue; host or cells: spleen, inguinal lymph nodes, blood and brain homogenate of C57BL/6 EAE mice
Procedure: BTK occupancy in spleen was determined at 1, 5 and 8 hours after b.i.d. oral dosing of LOU064 (FIG. 4).
BTK occupancy was assessed in brain homogenates that had been prepared for compound exposure analysis (FIG. 6). […] Variability in brain BTK occupancy might be due to the fact that the analysis was performed on the remainder of the homogenates prepared for compound level assessment.

[5] = 3 mg/kg b.i.d., 1, 5 and 8 hours after dosing
[6] = 30 mg/kg b.i.d., 1, 5 and 8 hours after dosing

T2 sequence (P35991 whole entry): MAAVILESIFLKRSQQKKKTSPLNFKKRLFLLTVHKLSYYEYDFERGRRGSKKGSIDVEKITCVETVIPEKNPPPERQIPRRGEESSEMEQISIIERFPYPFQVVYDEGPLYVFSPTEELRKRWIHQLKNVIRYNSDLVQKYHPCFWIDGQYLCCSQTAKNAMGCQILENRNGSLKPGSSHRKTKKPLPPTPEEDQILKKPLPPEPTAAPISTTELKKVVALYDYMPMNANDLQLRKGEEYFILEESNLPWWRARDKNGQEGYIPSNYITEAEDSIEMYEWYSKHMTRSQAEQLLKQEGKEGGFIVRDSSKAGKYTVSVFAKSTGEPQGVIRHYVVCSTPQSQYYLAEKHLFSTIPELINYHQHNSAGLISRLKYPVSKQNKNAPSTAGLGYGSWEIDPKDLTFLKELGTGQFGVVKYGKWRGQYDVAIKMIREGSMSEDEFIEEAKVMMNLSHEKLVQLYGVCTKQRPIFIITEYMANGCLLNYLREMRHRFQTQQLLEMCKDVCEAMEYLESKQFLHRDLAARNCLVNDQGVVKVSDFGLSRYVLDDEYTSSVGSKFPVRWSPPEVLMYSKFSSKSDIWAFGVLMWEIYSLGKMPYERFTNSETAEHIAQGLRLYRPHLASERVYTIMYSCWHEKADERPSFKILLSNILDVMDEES
T1 sequence (Q06187 whole entry): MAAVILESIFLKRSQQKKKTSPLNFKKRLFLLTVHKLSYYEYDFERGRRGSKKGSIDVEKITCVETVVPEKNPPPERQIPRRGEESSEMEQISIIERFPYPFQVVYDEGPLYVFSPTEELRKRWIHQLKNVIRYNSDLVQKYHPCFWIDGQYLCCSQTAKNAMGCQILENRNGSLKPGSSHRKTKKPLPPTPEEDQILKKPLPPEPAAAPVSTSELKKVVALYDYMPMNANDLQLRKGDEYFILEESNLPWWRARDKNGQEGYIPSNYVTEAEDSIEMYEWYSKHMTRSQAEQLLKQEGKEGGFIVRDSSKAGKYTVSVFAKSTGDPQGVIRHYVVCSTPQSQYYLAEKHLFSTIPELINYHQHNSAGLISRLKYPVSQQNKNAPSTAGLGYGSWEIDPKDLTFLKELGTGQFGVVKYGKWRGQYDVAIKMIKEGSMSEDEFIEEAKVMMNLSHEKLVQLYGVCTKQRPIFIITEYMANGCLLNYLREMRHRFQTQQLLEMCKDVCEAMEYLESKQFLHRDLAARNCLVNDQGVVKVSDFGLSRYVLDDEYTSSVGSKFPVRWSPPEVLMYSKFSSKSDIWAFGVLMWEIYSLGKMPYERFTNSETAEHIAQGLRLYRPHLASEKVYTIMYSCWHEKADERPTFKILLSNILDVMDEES

## C=CC(=O)N(C)CCOc1c(N)ncnc1-c1cc(F)cc(NC(=O)c2ccc(C3CC3)cc2F)c1C [LOU064, N-(3-(6-amino-5-(2-(N-methylacrylamido)ethoxy)pyrimidin-4-yl)-5-fluoro-2-methylphenyl)-4-cyclopropyl-2-fluorobenzamide]
BTK [1]
  BTK occupancy in blood: reaches full occupancy even at low doses
HumanMOG-induced EAE; 3 mg/kg b.i.d.
  neurologic symptoms and EAE-induced weight loss: only a fairly weak reduction
HumanMOG-induced EAE; 30 mg/kg b.i.d.
  cumulative disease burden: significantly reduced
  disease incidence / frequency of EAE onset: reduction in the frequency of EAE onset; also recorded: significantly reduced disease incidence
  peak EAE score: significantly reduced
HumanMOG-induced EAE; 30 mg/kg p.o. b.i.d.
  EAE clinical symptoms / EAE scores: improvement in EAE scores; also recorded: significantly reduced clinical symptoms of EAE; also recorded: highly effective at inhibiting HumanMOG-induced EAE induction; also recorded: strongly reduced neurologic symptoms
  inflammation-induced cachexia / daily body weight change: significantly improved; also recorded: inhibited inflammation-induced cachexia; also recorded: strongly reduced
HumanMOG-induced EAE; 3 and 30 mg/kg p.o. b.i.d.
  tolerability: well tolerated in all animals
HumanMOG-induced EAE; mouse, in vivo
  adverse events: no adverse events were observed with either dose group
HumanMOG-induced EAE; short eight-day pre-EAE protocol, 30 mg/kg twice daily
  weight gain in immunized mice (inflammation-induced cachexia): improved weight gain
NF-L
  mean serum NF-L level: non-significant trend towards a lower mean NF-L level; also recorded: slightly reduced
[2]
  MOG-specific IgM and IgG responses in serum: had no effect; also recorded: did not affect
[3]
  MOG-specific IgG2c: No change was detected
  MOG-specific IgM and IgG responses in serum: significantly reduced
BTK [4]; [5]
  BTK occupancy in lymph nodes: maximal for both doses and showed a decay after a 3 mg/kg dose; also recorded: complete BTK occupancy
  BTK occupancy in spleen: maximal for both doses and showed a decay after a 3 mg/kg dose; also recorded: complete BTK occupancy
BTK [4]; 3 mg/kg b.i.d., 1 hour timepoint
  BTK occupancy in brain homogenate: only minimal BTK occupancy
BTK [4]; 30 mg/kg b.i.d.
  BTK occupancy in brain homogenate: maximal BTK occupancy with a decline over the dosing interval
BTK [4]; [6]
  BTK occupancy in lymph nodes: a more sustained occupancy after the 30 mg/kg dose
  BTK occupancy in spleen: a more sustained occupancy after the 30 mg/kg dose
